Tests used:
[1] = target: T1, CDK2/CycA (Homo sapiens, UniProt P24941); experiment: General kinase assay (Example 80); format: biochemical; conditions: ATP 1 μM
T1 construct: purchased ProQinase (Freiburg, Germany)
Procedure: (§1) Kinase assays determining CDK2/CyclinA and CDK5/p35 activity were performed as described by the manufacturer's recommendations (ProQinase (Freiburg, Germany) for CDK2/CyclinA and Upstate for CDK5/p35).
(§2) The inhibitory effect of compounds according to the present invention on the activity of protein kinases can be measured according to the following protocol: • Reaction Volume: 40 μl • Reaction Time: 60 min • Reaction Temperature: room temperature • Assay Plate: 96 well U bottom plate (Greiner, 650161) • MultiScreen-PH Plate: 96 well MAPH Filter Plates (Millipore, MAPHNOB50) • Filter Washing Solution: 0.75% H3PO4 • Scintillation Liquid Supermix Liquid Scintillator (PerkinElmer, 1200-439) Controls: • Negative Control (C−): 100 mM EDTA (Ethylenediaminetetraacetic acid), no Inhibitor • Positive Control (C+): no Inhibitor Reaction Buffer: • 20 mM Tris (Tris(hydroxymethyl)aminomethane hydrochloride), pH 7.5 • 10 mM MgCl2 • 1 mM DTT Final Assay Concentrations: • Kinase: Use kinase conc. yielding 10% ATP turn over. • ATP: 1 μM • Adenosine 5′-[-^33P]triphosphate:12.5 μCi/ml (Amersham Biosciences, BF1000) • Substrate: Myelin Basic Protein 10 μM (Invitrogen, 13228-010) Pipetting Sequence: • 1) Add 10 μl 4 fold concentrated Substrate+4 fold concentrated ATP in […] concentrated Reaction Buffer to each well of Assay Plate • 2) Add 10 μl 4 fold concentrated inhibitor in 4% DMSO in H2O to each well except to C− and C+wells • 3) Add 10 μl 4% DMSO in H2O to C− and C+wells • 4) Add 10 μl 500 mM EDTA in H2O to C− wells • 5) Add 10 μl 50 μCi/ml Adenosine 5′-[-^33P]triphosphate in H2O to each well • 6) Add 10 μl 4 fold concentrated kinase in Reaction Buffer to each well • 7) Incubate 1 hr at room temperature • 8) Add 10 μl 50 mM EDTA in H2O to each well except to C− wells • 9) Prepare MAPH plates by adding 200 μl 0.75% H3PO4 to each well • 10) Exhaust 0.75% H3PO4 using Millipore vacuum station • 11) Add 60 μl 0.75% H3PO4 to each well of MAPH Filter Plate • 12) Transfer 30 μl sample per well from Assay Plate to corresponding well of MAPH Filter Plate • 13) Incubate 30 min at room temperature • 14) Wash each well of MAPH Filter Plates 3× with 200 μl 0.75% H3PO4 using Millipore vacuum station. • 15) Add 20 μl Scintillation Liquid to each well of MAPH Filter Plate • 16) Seal MAPH Filter Plate • 17) Store MAPH Filter Plate 30 min in darkness • 18) Quantify radioactivity Results:
(§3) IC50s were calculated for each kinase based on serial dilutions.

[2] = target: T2, CDK5/p35 (Homo sapiens, UniProt Q00535); experiment: General kinase assay (Example 80); format: biochemical; conditions: ATP 1 μM
T2 construct: purchased Upstate
Procedure: as §1, §2, §3

[3] = test system: MCF7; experiment: Growth assay using Alamar Blue; format: cell-based; conditions: Homo sapiens, read-out: IC50 against cell line MCF7
Procedure: (§4) Cells were seeded in 384-well plates (white, Greiner: 781080) at a density of […] cells per well in medium (RPMI+10% FCS).
(§5) Cells were incubated in 25 μl medium/well and were grown over night at 37° C., 6% CO2. On the following day compounds were added in DMSO in serial fold dilutions in fresh medium. Negative control wells were incubated without cells. Positive control wells were incubated with cells but without inhibitors (DMSO only). These wells served as data points to determine relative growth (given in % of the DMSO control [=100%]). The cell number was determined by addition of 5 μL Alamar Blue™ (Biosource DAL1100) to each well. Fluorescence was measures with an Analyst GT machine (Molecular Devices) at an excitation wavelength of 560 nm and an emission wavelength of 590 nm.
(§6) The following cell lines were used: A2780 (ECACC order number 93112519; human ovarian carcinoma; Semin Oncol (1984) 11:285; Cancer Res (1987) 47:414), B16F1 (ATCC order number CRL-6323; melanoma; Nat. New Biol. 242: 148-149, 1973); HCT116 (ATCC order number CCL-247; Colorectal carcinoma; Cancer Res (1981) 41:1751; Cancer (1995) 76:201), HT29 (ATTC order number HTB-38; colorectal adenocarcinoma; J. Biol. Chem. 271: 9490-9496, 1996) HepG2 (ATCC order number HB-8065; hepatocellular carcinoma; J. Biol. Chem. 271: 10073-10078, 1996), J774 (ATCC order number TIB-67; reticulum cell sarcoma; J. Biol. Chem. 271: 18431-18436, 1996); MCF7 (ATCC order number HTB-22; Breast carcinoma; J Natl Cancer Inst (1973) 51:1409; Cancer Res (1993) 53:5193), PM1 (obtainable from the National Institute of Allergy and Infectious Diseases; Division of AIDS via the NIH AIDS Research & Reference Reagent Program; Lusso P et al (1995), J Virol 69: 3712-3720) and U373-MAGI-CCR5 (obtainable from the National Institute of Allergy and Infectious Diseases; Division of AIDS via the NIH AIDS Research & Reference Reagent Program; Kensinger R D et al (2004), Antimicrob Agents Chemother 48: 1614-1623).
(§7) IC50s were calculated for each cell line based on serial dilutions.

[4] = test system: HCT116; experiment: Growth assay using Alamar Blue; format: cell-based; conditions: Homo sapiens, HCT-116, read-out: IC50 against cell line HCT116
Procedure: as §4, §5, §6, §7

[5] = test system: HepG2; experiment: Growth assay using Alamar Blue; format: cell-based; conditions: Homo sapiens, read-out: IC50 against cell line HepG2
Procedure: as §4, §5, §6, §7

[6] = test system: J774; experiment: Growth assay using Alamar Blue; format: cell-based; conditions: Mus musculus, read-out: IC50 against cell line J774
Procedure: as §4, §5, §6, §7

[7] = test system: PM1; experiment: Growth assay using Alamar Blue; format: cell-based; conditions: read-out: IC50 against cell line PM1
Procedure: as §4, §5, §6, §7

[8] = test system: B16F1; experiment: Growth assay using Alamar Blue; format: cell-based; conditions: Mus musculus, B16-F1, read-out: IC50 against cell line B16F1
Procedure: as §4, §5, §6, §7

[9] = test system: A2780; experiment: Growth assay using Alamar Blue; format: cell-based; conditions: Homo sapiens, read-out: IC50 against cell line A2780
Procedure: as §4, §5, §6, §7

[10] = test system: U373-MAGI-CCR5E; experiment: Growth assay using Alamar Blue; format: cell-based; conditions: read-out: IC50 against cell line U373-MAGI-CCR5E
Procedure: as §4, §5, §6, §7

[11] = test system: HT29; experiment: Growth assay using Alamar Blue; format: cell-based; conditions: Homo sapiens, HT-29, read-out: IC50 against cell line HT29
Procedure: as §4, §5, §6, §7

[12] = target: CDK6/CycD3 (Homo sapiens, UniProt Q00534); experiment: General kinase assay (Example 80); format: biochemical; conditions: ATP 1 μM
Procedure: as §2, §3

[13] = target: CDK4/CycD1 (Homo sapiens, UniProt P11802); experiment: General kinase assay (Example 80); format: biochemical; conditions: ATP 1 μM
Procedure: as §2, §3

[14] = target: CDK1/CycB (Homo sapiens, UniProt P06493); experiment: General kinase assay (Example 80); format: biochemical; conditions: ATP 1 μM
Procedure: as §2, §3

[15] = test system: HBV (HepG2-2.2.15 cells); experiment: HBV replication assay; format: cell-based; conditions: 6 days
Procedure: To test the anti-HBV-activity of compounds of the present invention the HBV-producing cell line HepG2-2.2.15 (M. A. Sells, PNAS 1987, 84, 1005-1009) is used. About 1.0×10^4 cells are seeded in 96-well microtiter plates in DMEM medium supplemented with 10% FCS. After incubation at 37° C. in 5% CO2 atmosphere for 24 hours the medium is replaced with fresh medium containing the appropriately diluted compounds of the present invention. 3 days later medium is replaced by freshly prepared compound-containing medium and the cells are incubated for further 3 days. Subsequently 200 μl lysis buffer (50 mM Tris-Cl 7.5; 1 mM EDTA 8.0; 0.5% NP40) per well is added. To remove cell debris and nucleic acids, lysate is centrifuged (15000 rpm, 10 min, 4° C.).
Cellular and viral RNA is removed by addition of 2 μl of RNase. 100 μl of the samples are spotted onto an uncharged nylon membrane pre-wetted with PBS (phosphate-buffered saline) using a 96 well-blotting chamber (MINIfold Dot-Blot, Schleicher&Schüll). […]
The fixed membrane is pre-hybridized in a standard hybridisation buffer (50% formamide, 5×SSPE, 10×Denhards, 1% SDS, 100 μg/ml salmon sperm DNA) for at least 3 hours at 42° C. and hybridised overnight against the labelled HBV-fragment. […] The intensity of the HBV-DNA is quantified using a phosphoimager (Fuji). […] Absorbance is monitored at 570 nm and 600 nm wavelength.

CDK6/CycD3, sequence (Q00534 whole entry, species assumed): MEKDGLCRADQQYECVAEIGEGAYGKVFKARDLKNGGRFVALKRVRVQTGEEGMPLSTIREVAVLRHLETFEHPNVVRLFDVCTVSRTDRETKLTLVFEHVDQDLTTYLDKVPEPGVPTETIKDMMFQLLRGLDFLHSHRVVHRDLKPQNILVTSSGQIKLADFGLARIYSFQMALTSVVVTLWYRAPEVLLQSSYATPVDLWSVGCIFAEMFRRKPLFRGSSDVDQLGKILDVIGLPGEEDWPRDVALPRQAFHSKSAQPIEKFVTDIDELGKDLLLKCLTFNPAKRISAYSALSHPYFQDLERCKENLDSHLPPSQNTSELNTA
CDK6/CycD3, sequence (P30281 whole entry partner, species assumed): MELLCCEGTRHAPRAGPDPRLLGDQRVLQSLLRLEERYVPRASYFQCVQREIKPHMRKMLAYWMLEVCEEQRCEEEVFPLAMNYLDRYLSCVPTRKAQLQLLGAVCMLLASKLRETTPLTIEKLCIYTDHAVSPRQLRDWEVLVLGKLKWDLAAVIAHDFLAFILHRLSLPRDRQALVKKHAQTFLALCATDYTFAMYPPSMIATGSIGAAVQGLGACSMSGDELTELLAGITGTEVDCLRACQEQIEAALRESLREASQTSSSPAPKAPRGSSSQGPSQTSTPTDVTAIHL
CDK4/CycD1, sequence (P11802 whole entry, species assumed): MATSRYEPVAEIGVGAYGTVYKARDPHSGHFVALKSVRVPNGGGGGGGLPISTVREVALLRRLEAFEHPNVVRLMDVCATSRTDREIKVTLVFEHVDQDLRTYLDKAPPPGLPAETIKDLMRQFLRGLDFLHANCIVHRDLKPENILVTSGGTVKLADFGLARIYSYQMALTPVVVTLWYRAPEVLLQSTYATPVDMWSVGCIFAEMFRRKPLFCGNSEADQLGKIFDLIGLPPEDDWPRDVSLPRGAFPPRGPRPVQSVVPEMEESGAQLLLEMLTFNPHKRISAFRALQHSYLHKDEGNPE
CDK4/CycD1, sequence (P24385 whole entry partner, species assumed): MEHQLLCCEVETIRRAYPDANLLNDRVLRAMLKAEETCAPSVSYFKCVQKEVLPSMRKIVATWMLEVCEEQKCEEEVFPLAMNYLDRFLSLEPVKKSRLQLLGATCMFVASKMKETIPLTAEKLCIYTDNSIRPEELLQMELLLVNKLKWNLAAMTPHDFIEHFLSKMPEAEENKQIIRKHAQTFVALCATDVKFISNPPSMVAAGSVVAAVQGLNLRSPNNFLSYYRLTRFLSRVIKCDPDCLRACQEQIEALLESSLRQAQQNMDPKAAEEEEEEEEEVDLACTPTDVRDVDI
T2 sequence (Q00535 whole entry): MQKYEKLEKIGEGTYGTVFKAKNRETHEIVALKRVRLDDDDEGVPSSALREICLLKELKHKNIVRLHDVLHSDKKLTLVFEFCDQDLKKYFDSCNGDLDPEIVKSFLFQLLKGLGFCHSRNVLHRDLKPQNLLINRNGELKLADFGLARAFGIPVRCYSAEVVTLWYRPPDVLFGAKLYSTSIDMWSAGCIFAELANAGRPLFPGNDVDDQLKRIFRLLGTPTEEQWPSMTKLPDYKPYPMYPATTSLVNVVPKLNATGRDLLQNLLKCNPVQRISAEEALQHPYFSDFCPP
T2 sequence (Q15078 whole entry partner): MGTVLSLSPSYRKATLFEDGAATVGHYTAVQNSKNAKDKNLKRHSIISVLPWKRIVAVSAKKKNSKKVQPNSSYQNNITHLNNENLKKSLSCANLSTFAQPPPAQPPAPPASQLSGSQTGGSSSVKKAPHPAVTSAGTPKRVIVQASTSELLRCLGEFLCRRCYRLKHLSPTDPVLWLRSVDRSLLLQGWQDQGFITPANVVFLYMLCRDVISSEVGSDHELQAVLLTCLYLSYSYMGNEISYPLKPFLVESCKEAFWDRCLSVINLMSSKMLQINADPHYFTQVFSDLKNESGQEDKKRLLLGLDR
CDK1/CycB, sequence (P06493 whole entry, species assumed): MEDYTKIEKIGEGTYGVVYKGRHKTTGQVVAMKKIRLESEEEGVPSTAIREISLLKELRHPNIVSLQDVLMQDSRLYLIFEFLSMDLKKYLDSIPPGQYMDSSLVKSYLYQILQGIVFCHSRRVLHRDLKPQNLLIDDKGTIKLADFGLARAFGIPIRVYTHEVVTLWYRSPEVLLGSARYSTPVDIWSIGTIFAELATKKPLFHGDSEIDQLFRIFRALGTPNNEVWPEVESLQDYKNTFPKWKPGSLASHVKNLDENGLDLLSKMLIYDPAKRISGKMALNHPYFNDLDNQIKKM
CDK1/CycB, sequence (P14635 whole entry partner, species assumed): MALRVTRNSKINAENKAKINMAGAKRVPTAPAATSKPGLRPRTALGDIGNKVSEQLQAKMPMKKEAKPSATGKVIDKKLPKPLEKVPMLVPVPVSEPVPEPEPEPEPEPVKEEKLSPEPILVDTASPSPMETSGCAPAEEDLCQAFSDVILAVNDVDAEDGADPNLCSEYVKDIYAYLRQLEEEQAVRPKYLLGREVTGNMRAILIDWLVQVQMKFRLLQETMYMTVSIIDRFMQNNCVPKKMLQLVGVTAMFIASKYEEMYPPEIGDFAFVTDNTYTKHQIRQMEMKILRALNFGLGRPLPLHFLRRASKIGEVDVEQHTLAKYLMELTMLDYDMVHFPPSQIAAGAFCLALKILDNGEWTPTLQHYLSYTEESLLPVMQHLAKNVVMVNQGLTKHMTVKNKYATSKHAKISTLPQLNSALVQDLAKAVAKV

Row | Structure (SMILES) | IC50 [1] | IC50 [2] | IC50 [3] | IC50 [4] | IC50 [5] | IC50 [6] | IC50 [7] | IC50 [8] | IC50 [9] | IC50 [10] | IC50 [11] | IC50 [12] | IC50 [13] | IC50 [14] | HBV replication (HBV-DNA) [15]
1 | COc1ccccc1-c1cc(Nc2cccc(CS(N)(=O)=O)c2)ncn1 [Compound 85, C-{3-[6-(2-methoxy-phenyl)-pyrimidin-4-ylamino]-phenyl}-methanesulfonamide] | < 10 µM | < 5 µM | < 10 µM | < 2 µM | < 10 µM | < 10 µM | < 5 µM | < 10 µM | < 10 µM | < 10 µM | < 5 µM | < 10 µM | < 10 µM | < 10 µM | –
2 | CN1CC[C@H](c2c(O)cc(O)c3c(=O)cc(-c4ccccc4Cl)oc23)[C@H](O)C1 [flavopiridol] | – | – | – | – | – | – | – | – | – | – | – | – | – | – | inhibits replication

From US8507498B2, “4, 6-disubstituted aminopyrimidine derivatives as inhibitors of protein kinases” (Ingenium Pharmaceuticals GmbH, priority 2007, dated 2013)
